Our source for the TGI and GI50 values is PubChem BioAssay (NCI).

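Growth conditions: 96-well plates. Treatment: test compound, 48 hours, 5 concentrations. Analysis: linear interpolation between bracketing concentrations; unreached endpoints set to highest concentration. At the GI50, growth is halved. TGI marks complete inhibition of growth.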 Where a SMILES comes first, the peptide text is derived from it. The star is where a group is joined. Palmitoyl = CCCCCCCCCCCCCCCC(=O)*

Test systems include PC-3 prostate; RXF 393 renal; SF-539 CNS; EKVX NSCLC; SW-620 colon; KM12 colon; SK-OV-3 ovarian; MOLT-4 leukemia; IGROV1 ovarian; NCI-H226 lung.
Holding throughout (experiment): NCI-60 cell line screen, 48 h

Consider `O=C(CN1C(=O)CC(c2ccccc2)(c2ccccc2)C1=O)N1CCN(CCO)CC1`, for which the TGI in the test on PC-3 prostate, with RXF 393 renal, in the test with SF-539 CNS, in the test with EKVX NSCLC, with SW-620 colon and with KM12 colon was above 100 µM throughout. For the same molecule, the TGI in the test with SK-OV-3 ovarian, in the test on MOLT-4 leukemia and with IGROV1 ovarian was above 100 µM throughout.

Regarding `CN1CC[C@]2(c3cccc(O)c3)CC(=O)/C(=C/c3ccccc3)[C@@H]1C2`, the TGI is 7.74 µM in the test with PC-3 prostate; 31.9 µM with NCI-H226 lung; 4.18 µM with RXF 393 renal; 6.1 µM with SF-539 CNS; 20.2 µM in the test with EKVX NSCLC; 6.93 µM in the test on SW-620 colon. Also, the results for the TGI with KM12 colon, in the test with MOLT-4 leukemia and in the test on IGROV1 ovarian were 11.4 µM, 5.59 µM and 14.6 µM, respectively.

Consider `O=C1/C(=C/c2ccc(Cl)cc2)CCCc2ccccc21`, for which the TGI was determined as 53.1 µM in the test with PC-3 prostate; 35.9 µM in the test on NCI-H226 lung; 31.8 µM in the test with SF-539 CNS; 35.3 µM with EKVX NSCLC; 29 µM in the test with SW-620 colon; 28.5 µM with KM12 colon. Moreover, the TGI with SK-OV-3 ovarian was 96.5 µM; with MOLT-4 leukemia it was 40 µM; with IGROV1 ovarian it was 43.3 µM.

On to `Nc1ncnc2c1ccn2C/C=C/CO`, for which the TGI with PC-3 prostate, in the test on RXF 393 renal, in the test with SF-539 CNS, with EKVX NSCLC, in the test on SW-620 colon and with KM12 colon was above 100 µM in each case. Further, the TGI with SK-OV-3 ovarian, with MOLT-4 leukemia and in the test with IGROV1 ovarian was above 100 µM throughout.

As to `CCc1n[nH]c(=O)n1-c1ccc2ccccc2c1`, the TGI in the test with NCI-H226 lung, with RXF 393 renal, with SF-539 CNS, in the test on EKVX NSCLC, in the test on SW-620 colon and with KM12 colon was above 100 µM throughout. The TGI with SK-OV-3 ovarian, in the test on MOLT-4 leukemia and in the test with IGROV1 ovarian was above 100 µM in each case.

With `CCCCCCCCCCCCCCCC(=O)N1CCCC1C(=O)NCC(=O)NC(Cc1ccccc1)C(=O)N1CCCC1C(=O)NC(CO)C(=O)NC(Cc1ccc(O)cc1)C(=O)NC(CCCCN)C(=O)NC(CC(C)C)C(=O)NC(CCCN=C(N)N)C(=O)N1CCCC1C(=O)NCC(N)=O` (stereo unspecified) (Palmitoyl-PGFPSYKLRPG-NH2; configuration not given here), the GI50 in the test with NCI-H226 lung was 23.5 µM; with RXF 393 renal it was 23.2 µM; in the test on SF-539 CNS it was 20.5 µM; with EKVX NSCLC, 15.7 µM; in the test on SW-620 colon, 25.5 µM; in the test on KM12 colon, 2.28 µM. Also, the GI50 with SK-OV-3 ovarian was 23.2 µM; with MOLT-4 leukemia, 18.6 µM; with IGROV1 ovarian it was 18.6 µM. For the same molecule, the TGI in the test on NCI-H226 lung worked out at 44.4 µM; in the test on RXF 393 renal, 53 µM; with SF-539 CNS, 47.9 µM; in the test with EKVX NSCLC, 44.5 µM; with SW-620 colon it was 73.9 µM; in the test with KM12 colon, 12.7 µM. Besides, the results for the TGI in the test with SK-OV-3 ovarian, in the test on MOLT-4 leukemia and in the test with IGROV1 ovarian were 48.1 µM, 37.7 µM and 48.8 µM, respectively.

For the molecule `C=C(C)[C@H]1C2=CC(C(=O)OC)=C(C[C@H](C(=C)C)[C@@H](O)[C@@H](O)C3=C[C@H]1OC3=O)O2`, the TGI with NCI-H226 lung, in the test with RXF 393 renal, in the test with SF-539 CNS, in the test on EKVX NSCLC, in the test with SW-620 colon and in the test with KM12 colon was above 100 µM in each case. For the same molecule, the TGI with SK-OV-3 ovarian, with MOLT-4 leukemia and in the test with IGROV1 ovarian was above 100 µM in each case.

For the molecule `Clc1sc(Cl)c2c1[C@@H](Cl)C[C@@H]2Br`, the TGI in the test with PC-3 prostate, in the test on RXF 393 renal, with EKVX NSCLC, in the test with SW-620 colon, in the test with KM12 colon and with SK-OV-3 ovarian was above 100 µM each time. In addition, the TGI was 43.9 µM in the test on MOLT-4 leukemia and above 100 µM in the test on IGROV1 ovarian.

With `CN(C)Cc1cc(C(=O)/C=C/c2ccc([N+](=O)[O-])cc2)cc(CN(C)C)c1O`, the TGI was 33.9 µM in the test with PC-3 prostate; 19.2 µM in the test on NCI-H226 lung; 38.1 µM with RXF 393 renal; 40.5 µM with SF-539 CNS; 37.3 µM in the test on EKVX NSCLC; 27.1 µM with SW-620 colon. The TGI was 29.7 µM in the test with KM12 colon, 51.2 µM in the test on MOLT-4 leukemia and 35.6 µM with IGROV1 ovarian.

For the molecule `CCN(CC)c1ccc(/C=C/c2ccnc3ccccc23)cc1`, the TGI in the test on PC-3 prostate, in the test with RXF 393 renal, with SF-539 CNS, with EKVX NSCLC, in the test with SW-620 colon and with KM12 colon was above 100 µM in each case. For the same molecule, the TGI in the test with SK-OV-3 ovarian and with IGROV1 ovarian was above 100 µM throughout.

As to `O=C(OCC(Cl)(Cl)Cl)N1CC[C@H](C2CCCCC2)C1`, the TGI in the test on PC-3 prostate stood at 48.7 µM; with RXF 393 renal, 36.8 µM; in the test with EKVX NSCLC, 32.4 µM; in the test with KM12 colon, 31.7 µM; with SK-OV-3 ovarian, 31.8 µM; in the test with MOLT-4 leukemia, 50.5 µM. In the test with IGROV1 ovarian, the TGI turned out to be 32.7 µM.

Turning to `COc1ccc(CC(N)=O)cc1OC`, the TGI in the test with NCI-H226 lung, in the test on RXF 393 renal, with SF-539 CNS, in the test on EKVX NSCLC, with SW-620 colon and in the test on KM12 colon was above 1250 µM throughout. Moreover, the TGI with SK-OV-3 ovarian, in the test on MOLT-4 leukemia and with IGROV1 ovarian was above 1250 µM throughout.

As for `Cc1cc(OP2(=O)NCc3ncccc3O2)ccc1Cl` (stereo unspecified), the TGI in the test with PC-3 prostate, in the test with NCI-H226 lung, with RXF 393 renal, with SF-539 CNS, with EKVX NSCLC and in the test with SW-620 colon was above 100 µM throughout. The TGI with KM12 colon, with MOLT-4 leukemia and with IGROV1 ovarian was above 100 µM each time.

As for `C=C(CN(C)C)C(=O)c1ccc(C(=O)C(=C)CN(C)C)cc1`, the TGI in the test on NCI-H226 lung, in the test with RXF 393 renal, in the test on SF-539 CNS, in the test on EKVX NSCLC, with SW-620 colon and in the test with KM12 colon was above 100 µM in each case. For the same molecule, the TGI in the test on SK-OV-3 ovarian, in the test with MOLT-4 leukemia and in the test on IGROV1 ovarian was above 100 µM in each case.
